Results from patent US20180000085A1, “USE OF PICOLINAMIDE COMPOUNDS WITH FUNGICIDAL ACTIVITY” (DOW AGROSCIENCES LLC, priority 2014, published 2018).

Tests used:
Puccinia triticina = test: Wheat brown rust (PUCCRT) disease control on wheat seedlings; format: in vivo; design: key to PUCCRT 3DC, HV activity at 100 ppm (% control rating) / PUCCRT disease control, 3DC / PUCCRT 1DP disease control rating, HV activity / PUCCRT 3DC disease control rating, HV activity / PUCCRT 3DC, LV activity at 125.1 g/H (% Control rating) / PUCCRT 1DP, LV activity at 125.1 g/H (% Control rating) / PUCCRT 3DC disease control rating, LV activity at 125.1 g/H / PUCCRT 1DP disease control rating, LV activity at 125.1 g/H / PUCCRT 3DC disease control rating, HV activity at 100 ppm / PUCCRT 1DP disease control rating, HV activity at 100 ppm / HV activity at 100 ppm PUCCRT 3DC (disease control rating) / LV activity at 125.1 g/H PUCCRT 1DP (disease control rating) / LV activity at 125.1 g/H PUCCRT 3DC (disease control rating): A: > 80; B: ≤ 80; C: Not Tested; D: No Activity Observed in the Reported Assay; settings: for PUCCRT 1DP disease control rating, HV activity / PUCCRT 3DC disease control rating, HV activity: HV application at 100 ppm; for PUCCRT 1DP disease control rating, HV activity / LV activity at 125.1 g/H PUCCRT 1DP (disease control rating): 1 Day Protectant; for PUCCRT 1DP disease control rating, HV activity / PUCCRT 3DC disease control rating, HV activity / LV activity at 125.1 g/H PUCCRT 1DP (disease control rating) / LV activity at 125.1 g/H PUCCRT 3DC (disease control rating): wheat brown rust; for PUCCRT 3DC disease control rating, HV activity / LV activity at 125.1 g/H PUCCRT 3DC (disease control rating): 3 Day Curative; for PUCCRT 1DP disease control rating, HV activity at 100 ppm / PUCCRT 3DC disease control rating, HV activity at 100 ppm: high volume application
Zymoseptoria tritici = test: Leaf blotch of wheat (SEPTTR) disease control on wheat seedlings; format: in vivo; design: key to SEPTTR 1DP, HV activity at 100 ppm (% control rating) / SEPTTR 3DC, HV activity at 100 ppm (% control rating) / SEPTTR disease control, 1DP / SEPTTR disease control, 3DC / SEPTTR 1DP disease control rating, HV activity / SEPTTR 3DC disease control rating, HV activity / SEPTTR 3DC, LV activity at 125.1 g/H (% Control rating) / SEPTTR 1DP, LV activity at 125.1 g/H (% Control rating) / SEPTTR 1DP disease control rating, LV activity at 125.1 g/H / SEPTTR 3DC disease control rating, LV activity at 125.1 g/H / SEPTTR 3DC disease control rating, HV activity at 100 ppm / SEPTTR 1DP disease control rating, HV activity at 100 ppm / HV activity at 100 ppm SEPTTR 3DC (disease control rating) / HV activity at 100 ppm SEPTTR 1DP (disease control rating) / LV activity at 125.1 g/H SEPTTR 1DP (disease control rating) / LV activity at 125.1 g/H SEPTTR 3DC (disease control rating): A: > 80; B: ≤ 80; C: Not Tested; D: No Activity Observed in the Reported Assay; settings: for SEPTTR 1DP disease control rating, HV activity / SEPTTR 3DC disease control rating, HV activity: HV application at 100 ppm; for SEPTTR 1DP disease control rating, HV activity / LV activity at 125.1 g/H SEPTTR 1DP (disease control rating): 1 Day Protectant; for SEPTTR 1DP disease control rating, HV activity / SEPTTR 3DC disease control rating, HV activity / LV activity at 125.1 g/H SEPTTR 1DP (disease control rating) / LV activity at 125.1 g/H SEPTTR 3DC (disease control rating): wheat leaf blotch; for SEPTTR 3DC disease control rating, HV activity / LV activity at 125.1 g/H SEPTTR 3DC (disease control rating): 3 Day Curative; for SEPTTR 1DP disease control rating, HV activity at 100 ppm / SEPTTR 3DC disease control rating, HV activity at 100 ppm: high volume application
[1] = low volume application, 125.1 g/H, 1 day protectant
[2] = low volume application, 125.1 g/H, 3 day curative
[3] = low volume application, 125.1 g/H

SMILES | PUCCRT 1DP disease control rating, HV activity (Puccinia triticina) | PUCCRT 3DC disease control rating, HV activity (Puccinia triticina) | SEPTTR 1DP disease control rating, HV activity (Zymoseptoria tritici) | SEPTTR 3DC disease control rating, HV activity (Zymoseptoria tritici) | PUCCRT 1DP disease control rating, HV activity at 100 ppm (Puccinia triticina; 1 day protectant) | PUCCRT 3DC disease control rating, HV activity at 100 ppm (Puccinia triticina; 3 day curative) | SEPTTR 1DP disease control rating, HV activity at 100 ppm (Zymoseptoria tritici; 1 day protectant) | SEPTTR 3DC disease control rating, HV activity at 100 ppm (Zymoseptoria tritici; 3 day curative) | other results
CCCO[C@@H](C(C)C)[C@H](C)OC(=O)[C@H](C)NC(=O)c1nccc(OC)c1OCOC(C)=O [Cmpd 850] | – | – | – | – | – | – | – | – | PUCCRT 1DP disease control rating, LV activity at 125.1 g/H (Puccinia triticina; [1]): B (≤ 80); PUCCRT 3DC disease control rating, LV activity at 125.1 g/H (Puccinia triticina; [2]): A (> 80); SEPTTR 1DP disease control rating, LV activity at 125.1 g/H (Zymoseptoria tritici; [1]): D; SEPTTR 3DC disease control rating, LV activity at 125.1 g/H (Zymoseptoria tritici; [2]): B (≤ 80)
CCC(CC)C(Oc1ccc(C(F)(F)F)cc1)C(C)OC(=O)C(C)NC(=O)c1nccc(OC)c1O (stereo not shown) [Cmpd 385] | B (≤ 80) | A (> 80) | D | D | – | – | – | – | –
CCC[C@@H](Oc1cccc(Cl)c1)[C@H](C)OC(=O)[C@H](C)NC(=O)c1nccc(OC)c1OC(C)=O [Cmpd 1056] | – | – | – | – | – | – | – | – | LV activity at 125.1 g/H PUCCRT 1DP (disease control rating) (Puccinia triticina; [3]): A (> 80); LV activity at 125.1 g/H PUCCRT 3DC (disease control rating) (Puccinia triticina; [3]): A (> 80); LV activity at 125.1 g/H SEPTTR 1DP (disease control rating) (Zymoseptoria tritici; [3]): A (> 80); LV activity at 125.1 g/H SEPTTR 3DC (disease control rating) (Zymoseptoria tritici; [3]): A (> 80)
COc1ccnc(C(=O)N[C@@H](C)C(=O)O[C@@H](C)[C@H](Oc2ccc(Cl)cc2)C2CCCC2)c1O [Cmpd 842] | – | – | – | – | A (> 80) | A (> 80) | A (> 80) | B (≤ 80) | –
COc1ccnc(C(=O)NC(C)C(=O)OC(C)C(Oc2ccccc2)c2ccccc2)c1O (stereo not shown) [Cmpd 818] | – | – | – | – | A (> 80) | D | A (> 80) | A (> 80) | –
COc1ccnc(C(=O)NC(C)C(=O)OC(C)C(OC(=O)C(C)C)C(C)C)c1O (stereo not shown) [Cmpd 399] | B (≤ 80) | D | B (≤ 80) | D | – | – | – | – | –
CCC(Cc1ccccc1)C(OCC(C)C)C(C)OC(=O)C(C)NC(=O)c1nccc(OC)c1OCOC(C)=O (stereo not shown) [Cmpd 454] | A (> 80) | A (> 80) | A (> 80) | A (> 80) | – | – | – | – | –
CCC(CC)[C@@H](Oc1cc(F)cc(Cl)c1)[C@H](C)OC(=O)[C@@H](NC(=O)c1nccc(OC)c1O)C(C)C [Cmpd 410] | A (> 80) | B (≤ 80) | B (≤ 80) | B (≤ 80) | – | – | – | – | –
C=CC[C@@H](Oc1cc(F)cc(Cl)c1)[C@H](C)OC(=O)[C@H](C)NC(=O)c1nccc(OC)c1OCOC(C)=O [Cmpd 1078] | – | – | – | – | – | – | – | – | LV activity at 125.1 g/H PUCCRT 1DP (disease control rating) (Puccinia triticina; [3]): A (> 80); LV activity at 125.1 g/H PUCCRT 3DC (disease control rating) (Puccinia triticina; [3]): A (> 80); LV activity at 125.1 g/H SEPTTR 1DP (disease control rating) (Zymoseptoria tritici; [3]): B (≤ 80); LV activity at 125.1 g/H SEPTTR 3DC (disease control rating) (Zymoseptoria tritici; [3]): B (≤ 80)
CCC[C@@H](Oc1ccc(C)cc1Cl)[C@H](C)OC(=O)[C@H](C)NC(=O)c1nccc(OC)c1O [Cmpd 999] | – | – | – | – | A (> 80) | A (> 80) | B (≤ 80) | B (≤ 80) | –
